Data from ChEMBL document CHEMBL1201862, “PubChem BioAssay data set” (2004).
The source made the active and inactive calls.

Key:
[1] = luciferase reporter signal suppression in cells – H4 neuroglioma cells, luminescence, dose response (AID 1990); type: functional, cell-based
[2] = biological target: Sphingosine 1-phosphate receptor 2 (Homo sapiens, UniProt O95136); experiment: Dose Response Cell Based Assay for Antagonists of the S1P2 Receptor. [Related pubchem assays: 856, 736 ]; type: functional
[3] = biological target: Mothers against decapentaplegic homolog 3 (Homo sapiens, UniProt P84022); experiment: inhibitors of SMAD-driven TGF-beta signaling – dose response (AID 715); type: functional
[4] = biological target: Transitional endoplasmic reticulum ATPase (Homo sapiens, UniProt P55072); experiment: p97 ATPase inhibitors, dose response, biochemical (AID 1534)
[5] = Intein inhibitors as potential Tuberculosis drugs, a cytotoxicity screen. [Related pubchem assays (depositor defined):AID2221, AID2223, AID434968, AID435010, AID449749, AID449750, AID489010]; type: functional
[6] = Trypanosoma cruzi growth suppression in host cells – NIH3T3 host cells, beta-gal luminescence, confirmation (AID 2044); type: functional, cell-based;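 further: intracellular parasites grown in NIH/3T3 mouse fibroblasts as host cells; luminescent beta-galactosidase reporter signal from transgenic T. cruzi replicating inside host cells; inhibitors lower the luminescence signal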
[7] = NIH3T3 cell viability loss – ATP luminescence, mouse fibroblasts, counter-screen, dose response (AID 2010); type: functional, cell-based;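 further: cells exposed to compound for about 90 hours before reading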
[8] = biological target: Heat shock protein HSP 90-alpha (Homo sapiens, UniProt P07900); type: functional, organism-based
[9] = biological target: DNA (cytosine-5)-methyltransferase 1 (Homo sapiens, UniProt P26358); experiment: inhibition of DNA methylation by DNMT1 – biochemical, fluorescent molecular beacon, confirmation (AID 602386); type: functional
[10] = biological target: T1, Mitochondrial peptide methionine sulfoxide reductase (Bos taurus, UniProt P54149); experiment: Absorbance-based biochemical high throughput dose response assay for activators of Methionine sulfoxide reductase A (MsrA).; type: functional
T1 sequence (P54149 whole entry): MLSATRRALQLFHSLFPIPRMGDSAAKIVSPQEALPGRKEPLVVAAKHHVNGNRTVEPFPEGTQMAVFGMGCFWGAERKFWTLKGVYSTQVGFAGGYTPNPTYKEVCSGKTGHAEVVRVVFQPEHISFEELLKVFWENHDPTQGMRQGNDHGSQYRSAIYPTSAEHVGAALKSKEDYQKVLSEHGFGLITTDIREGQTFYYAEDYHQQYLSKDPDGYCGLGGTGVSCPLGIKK

[11] = biological target: Caspase-9 (Homo sapiens, UniProt P55211); experiment: inhibitors of purified CASP9 protease – biochemical, fluorescence, plate reader, cherry-picked samples, selectivity assay for caspase-6 inhibitor project, dose response (AID 743293)
[12] = biological target: Caspase-8 (Homo sapiens, UniProt Q14790); experiment: inhibitors of purified CASP8 protease – biochemical, Z-IETD-R110 fluorescence, cherry-picked samples, selectivity assay for caspase-6 inhibitor project, dose response (AID 743294)
[13] = biological target: T2, Sentrin-specific protease 8 (Homo sapiens, UniProt Q96LD8); experiment: inhibition of human SENP8 cleavage activity – biochemical, luminescence, SAR follow-up (AID 504501); type: functional
T2 sequence (Q96LD8 whole entry): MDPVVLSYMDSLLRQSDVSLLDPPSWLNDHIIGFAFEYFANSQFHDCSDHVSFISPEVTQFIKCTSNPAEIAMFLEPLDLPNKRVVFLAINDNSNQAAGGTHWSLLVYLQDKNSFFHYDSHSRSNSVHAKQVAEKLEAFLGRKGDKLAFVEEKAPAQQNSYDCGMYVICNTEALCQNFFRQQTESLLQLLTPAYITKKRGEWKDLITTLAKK

[14] = biological target: T3, Sentrin-specific protease 6 (Homo sapiens, UniProt Q9GZR1); experiment: SAR Analysis of small molecule inhibitors of Sentrin-specific protease 6 (SENP6) using a Luminescent assay. [Related pubchem assays (depositor defined):AID2582, AID2599]; type: functional
T3 sequence (Q9GZR1 whole entry): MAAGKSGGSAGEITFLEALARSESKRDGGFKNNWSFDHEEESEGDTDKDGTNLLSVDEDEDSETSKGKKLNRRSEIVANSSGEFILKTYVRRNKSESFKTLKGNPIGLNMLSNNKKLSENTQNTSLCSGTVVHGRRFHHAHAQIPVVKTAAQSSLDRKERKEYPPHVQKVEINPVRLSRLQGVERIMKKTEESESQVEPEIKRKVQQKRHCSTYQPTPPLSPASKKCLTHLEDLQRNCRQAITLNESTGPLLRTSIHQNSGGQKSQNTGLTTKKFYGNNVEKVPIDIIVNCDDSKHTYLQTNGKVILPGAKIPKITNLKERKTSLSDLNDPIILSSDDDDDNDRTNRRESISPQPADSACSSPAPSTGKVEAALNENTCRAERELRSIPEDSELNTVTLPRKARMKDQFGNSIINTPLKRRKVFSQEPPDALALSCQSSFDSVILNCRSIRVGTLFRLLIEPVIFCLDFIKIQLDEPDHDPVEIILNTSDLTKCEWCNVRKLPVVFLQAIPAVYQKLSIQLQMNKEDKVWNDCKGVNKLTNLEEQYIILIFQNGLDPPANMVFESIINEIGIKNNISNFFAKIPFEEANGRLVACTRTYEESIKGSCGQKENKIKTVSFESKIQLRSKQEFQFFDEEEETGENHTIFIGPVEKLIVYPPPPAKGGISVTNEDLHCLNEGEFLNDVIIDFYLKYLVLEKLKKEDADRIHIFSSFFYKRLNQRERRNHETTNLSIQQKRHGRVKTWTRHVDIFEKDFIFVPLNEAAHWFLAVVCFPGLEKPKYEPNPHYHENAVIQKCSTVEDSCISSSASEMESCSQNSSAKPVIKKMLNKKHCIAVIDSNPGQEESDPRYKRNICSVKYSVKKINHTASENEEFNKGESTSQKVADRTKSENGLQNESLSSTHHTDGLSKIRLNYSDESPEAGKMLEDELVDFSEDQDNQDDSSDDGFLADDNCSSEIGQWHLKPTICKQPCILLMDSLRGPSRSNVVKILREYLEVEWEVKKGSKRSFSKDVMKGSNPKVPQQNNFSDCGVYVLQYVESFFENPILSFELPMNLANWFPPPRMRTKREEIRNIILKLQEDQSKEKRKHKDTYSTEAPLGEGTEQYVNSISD

[15] = cells; type: functional, cell-based
[16] = HEK-293T viability loss after treatment – luminescence, T-cell screen hits, cytotoxicity control for TCR NF-kB inhibitor project, dose response (AID 489026); type: functional, cell-based;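 further: cells exposed to compound about 14 hours before the viability readout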
[17] = system: HEK293; experiment: SAR Analysis of small molecule inhibitors of T-cell specific antigen receptor-induced NF-kB activation in a HEK-293T cell line using a luminescence assay - Set 2. [Related pubchem assays (depositor defined):AID435003, AID435012, AID489026]; type: functional, cell-based; settings: Homo sapiens
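Wherever CC50 is given: cells exposed to compound for 72 hours before luminescence readout.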

Chain of Sphingosine 1-phosphate receptor 2 (O95136 whole entry): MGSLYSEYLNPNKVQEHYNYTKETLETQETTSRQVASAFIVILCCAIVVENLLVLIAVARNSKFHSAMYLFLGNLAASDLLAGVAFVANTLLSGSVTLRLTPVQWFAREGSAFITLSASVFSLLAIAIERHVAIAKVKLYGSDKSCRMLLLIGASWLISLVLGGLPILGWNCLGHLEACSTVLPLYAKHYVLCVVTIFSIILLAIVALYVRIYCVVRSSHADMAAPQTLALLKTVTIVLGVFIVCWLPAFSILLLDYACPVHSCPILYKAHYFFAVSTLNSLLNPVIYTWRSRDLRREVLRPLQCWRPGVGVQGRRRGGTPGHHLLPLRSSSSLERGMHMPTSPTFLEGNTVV
Chain of DNA (cytosine-5)-methyltransferase 1 (P26358 whole entry): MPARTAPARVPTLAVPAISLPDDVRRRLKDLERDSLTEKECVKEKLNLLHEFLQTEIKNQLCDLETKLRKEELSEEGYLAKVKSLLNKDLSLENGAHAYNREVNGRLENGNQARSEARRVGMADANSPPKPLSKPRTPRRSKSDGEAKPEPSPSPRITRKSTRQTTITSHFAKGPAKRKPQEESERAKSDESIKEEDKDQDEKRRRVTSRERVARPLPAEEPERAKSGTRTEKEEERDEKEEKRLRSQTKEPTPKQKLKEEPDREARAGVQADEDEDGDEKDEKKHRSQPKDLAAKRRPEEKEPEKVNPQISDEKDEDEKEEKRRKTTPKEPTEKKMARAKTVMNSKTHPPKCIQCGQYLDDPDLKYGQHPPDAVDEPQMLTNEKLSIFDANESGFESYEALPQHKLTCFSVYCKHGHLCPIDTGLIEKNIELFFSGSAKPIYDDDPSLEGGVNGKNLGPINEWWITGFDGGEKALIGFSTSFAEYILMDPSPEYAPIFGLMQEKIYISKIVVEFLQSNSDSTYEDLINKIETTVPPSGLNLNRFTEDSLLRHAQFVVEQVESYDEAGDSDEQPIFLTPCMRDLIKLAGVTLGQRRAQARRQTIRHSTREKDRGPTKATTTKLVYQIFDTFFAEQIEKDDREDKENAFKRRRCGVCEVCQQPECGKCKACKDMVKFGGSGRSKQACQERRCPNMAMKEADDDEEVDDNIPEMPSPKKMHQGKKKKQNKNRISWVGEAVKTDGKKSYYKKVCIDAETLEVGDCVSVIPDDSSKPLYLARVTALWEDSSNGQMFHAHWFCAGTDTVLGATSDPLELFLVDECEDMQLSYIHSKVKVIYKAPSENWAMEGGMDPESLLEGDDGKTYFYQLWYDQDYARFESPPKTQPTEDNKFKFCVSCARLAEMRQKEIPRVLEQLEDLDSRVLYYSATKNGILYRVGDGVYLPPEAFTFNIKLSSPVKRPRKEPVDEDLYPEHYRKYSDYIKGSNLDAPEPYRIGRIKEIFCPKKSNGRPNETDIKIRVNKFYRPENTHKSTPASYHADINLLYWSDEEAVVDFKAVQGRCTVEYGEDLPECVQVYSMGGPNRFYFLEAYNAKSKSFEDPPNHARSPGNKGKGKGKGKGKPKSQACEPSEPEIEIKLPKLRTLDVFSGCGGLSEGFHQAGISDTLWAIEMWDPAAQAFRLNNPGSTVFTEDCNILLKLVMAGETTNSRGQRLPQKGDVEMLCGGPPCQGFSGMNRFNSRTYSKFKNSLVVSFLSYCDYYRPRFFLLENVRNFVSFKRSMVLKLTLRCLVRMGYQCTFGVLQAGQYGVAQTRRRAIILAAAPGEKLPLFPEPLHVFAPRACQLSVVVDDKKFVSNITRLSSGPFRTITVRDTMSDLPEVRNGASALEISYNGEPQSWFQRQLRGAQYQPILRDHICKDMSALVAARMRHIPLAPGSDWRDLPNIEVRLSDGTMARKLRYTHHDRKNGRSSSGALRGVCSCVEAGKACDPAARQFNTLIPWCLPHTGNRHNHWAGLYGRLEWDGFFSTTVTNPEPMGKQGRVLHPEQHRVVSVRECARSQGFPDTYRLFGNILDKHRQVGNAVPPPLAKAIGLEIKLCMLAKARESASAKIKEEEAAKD
Chain of Transitional endoplasmic reticulum ATPase (P55072 whole entry): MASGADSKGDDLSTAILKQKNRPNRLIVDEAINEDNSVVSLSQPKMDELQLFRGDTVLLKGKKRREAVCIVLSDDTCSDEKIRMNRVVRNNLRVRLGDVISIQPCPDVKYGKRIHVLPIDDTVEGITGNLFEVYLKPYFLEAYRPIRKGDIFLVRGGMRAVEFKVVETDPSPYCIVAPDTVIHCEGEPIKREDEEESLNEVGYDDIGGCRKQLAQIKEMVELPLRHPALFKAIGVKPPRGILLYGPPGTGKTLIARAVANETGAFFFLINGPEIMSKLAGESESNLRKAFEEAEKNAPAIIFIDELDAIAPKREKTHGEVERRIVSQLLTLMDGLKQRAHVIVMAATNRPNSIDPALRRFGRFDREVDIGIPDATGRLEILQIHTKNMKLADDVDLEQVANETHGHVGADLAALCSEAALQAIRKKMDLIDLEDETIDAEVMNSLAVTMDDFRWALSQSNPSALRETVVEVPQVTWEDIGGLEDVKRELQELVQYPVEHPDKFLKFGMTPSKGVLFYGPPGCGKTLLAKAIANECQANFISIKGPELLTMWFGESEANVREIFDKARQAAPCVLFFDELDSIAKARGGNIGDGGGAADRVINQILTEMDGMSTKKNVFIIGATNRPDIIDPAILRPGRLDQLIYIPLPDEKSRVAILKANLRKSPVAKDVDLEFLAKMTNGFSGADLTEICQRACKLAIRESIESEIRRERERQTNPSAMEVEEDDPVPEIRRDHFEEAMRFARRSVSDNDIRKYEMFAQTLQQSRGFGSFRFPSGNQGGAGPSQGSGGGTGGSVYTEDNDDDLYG
Chain of Caspase-9 (P55211 1-315 limits assumed): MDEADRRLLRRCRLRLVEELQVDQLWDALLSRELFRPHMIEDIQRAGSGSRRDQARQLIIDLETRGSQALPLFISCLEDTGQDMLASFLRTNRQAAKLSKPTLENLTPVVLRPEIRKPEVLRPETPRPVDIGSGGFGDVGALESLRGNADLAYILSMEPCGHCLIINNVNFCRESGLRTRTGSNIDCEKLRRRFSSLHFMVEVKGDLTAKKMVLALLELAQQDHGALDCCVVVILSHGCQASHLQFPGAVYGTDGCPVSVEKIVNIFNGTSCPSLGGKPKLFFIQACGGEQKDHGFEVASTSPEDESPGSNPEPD
Chain of Caspase-9 (P55211 331-416 limits assumed): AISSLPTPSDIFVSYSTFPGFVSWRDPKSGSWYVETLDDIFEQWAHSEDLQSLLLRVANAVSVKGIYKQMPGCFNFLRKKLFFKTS
Chain of Caspase-8 (Q14790 217-374 limits assumed): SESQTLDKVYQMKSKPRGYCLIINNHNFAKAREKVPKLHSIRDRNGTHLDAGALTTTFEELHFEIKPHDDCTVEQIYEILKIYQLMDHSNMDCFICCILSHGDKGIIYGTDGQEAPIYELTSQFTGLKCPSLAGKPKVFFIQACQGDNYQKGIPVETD
Chain of Caspase-8 (Q14790 385-479 limits assumed): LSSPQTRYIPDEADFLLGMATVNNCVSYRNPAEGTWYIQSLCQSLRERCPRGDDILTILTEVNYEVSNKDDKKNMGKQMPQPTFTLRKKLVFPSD
Chain of Mothers against decapentaplegic homolog 3 (P84022 whole entry): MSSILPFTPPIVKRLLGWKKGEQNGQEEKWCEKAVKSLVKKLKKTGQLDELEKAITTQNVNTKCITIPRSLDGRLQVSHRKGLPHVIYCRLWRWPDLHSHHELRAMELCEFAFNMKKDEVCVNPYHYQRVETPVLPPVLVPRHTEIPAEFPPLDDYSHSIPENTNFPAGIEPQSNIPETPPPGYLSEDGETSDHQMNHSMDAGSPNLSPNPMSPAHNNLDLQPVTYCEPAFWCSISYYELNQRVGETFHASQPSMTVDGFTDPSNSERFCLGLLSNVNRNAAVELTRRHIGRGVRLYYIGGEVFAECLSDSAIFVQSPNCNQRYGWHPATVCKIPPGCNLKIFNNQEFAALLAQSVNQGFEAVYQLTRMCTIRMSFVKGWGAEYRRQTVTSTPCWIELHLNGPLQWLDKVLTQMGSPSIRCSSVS

In the case of `Cn1nc(-c2ccc(Cl)cc2)nc2c(=O)n(C)c(=O)nc1-2`, the EC50 [1] is reported as 5.59 µM (inconclusive), the IC50 [2] is reported as 0.996 µM (active) and the IC50 [3] is reported as 0.039 µM (active). The IC50 [4] was > 50 µM (not active) and the CC50 [5] was > 40 µM (active).
With `SC1=Nc2ccccc2C1` the EC50 [6] was 0.487 µM (active), the EC50 [7] was 15.8 µM (active) and the AC50 [8] was 3.88 µM (active).
For `NS(=O)(=O)c1ccc(NC(=O)COC(=O)c2ccc([N+](=O)[O-])s2)cc1`, the IC50 [9] was 25.1 µM (active), the EC50 [10] was > 104 µM (inactive) and the AC50 [11] was 22.8 µM (active). For the same compound, the AC50 [12] was 20.3 µM (active).
With `CCCCNc1cc(NC(C)=O)cc2cc(OC)c(OC)cc12` the IC50 [13] was > 99 µM (inactive) and the IC50 [14] was 82 µM (active).
With `COc1ccc(C(NC(=O)C(C)C)c2ccc3cccnc3c2O)cc1` (configuration not stated) the EC50 [15] was 5.77 µM (active), the IC50 [16] was > 80 µM (inactive) and the IC50 [17] was 3.15 µM (active).
